Laboratory results: patent US11572590B2, “Methods for evaluating tumor cell spheroids using 3D microfluidic cell culture device” (Dana-Farber Cancer Institute, Inc., priority 2017, dated 2023)
Read-outs that look alike come from different tables or passages of the source.

Legend:
Experiment in all cases: SelectScreen Kinase Profiling, single point inhibition and IC50 for off-target kinases
Assay type in all cases: biochemical
[1] = target: off-target kinases (Homo sapiens, UniProt Q9BUB5); settings: MKNK1 (MNK1), ATP Km app, ZLYTE
Chain of off-target kinases (Homo sapiens, UniProt Q9BUB5) (Q9BUB5 whole entry): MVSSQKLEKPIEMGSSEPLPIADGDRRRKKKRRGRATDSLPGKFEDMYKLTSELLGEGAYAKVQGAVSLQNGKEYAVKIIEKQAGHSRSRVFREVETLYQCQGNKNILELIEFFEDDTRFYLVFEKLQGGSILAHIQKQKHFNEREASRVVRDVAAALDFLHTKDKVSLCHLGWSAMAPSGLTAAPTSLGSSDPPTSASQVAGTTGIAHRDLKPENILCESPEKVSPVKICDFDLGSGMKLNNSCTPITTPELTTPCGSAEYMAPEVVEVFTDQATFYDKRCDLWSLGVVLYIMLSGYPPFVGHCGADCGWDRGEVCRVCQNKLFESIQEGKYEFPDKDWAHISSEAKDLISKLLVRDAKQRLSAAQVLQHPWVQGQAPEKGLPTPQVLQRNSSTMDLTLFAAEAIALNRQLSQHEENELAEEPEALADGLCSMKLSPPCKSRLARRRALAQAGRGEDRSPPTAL

[2] = target: off-target kinases (Homo sapiens, UniProt Q8TDX7); settings: NEK7, ZLYTE, ATP Km app
Chain of off-target kinases (Homo sapiens, UniProt Q8TDX7) (Q8TDX7 whole entry): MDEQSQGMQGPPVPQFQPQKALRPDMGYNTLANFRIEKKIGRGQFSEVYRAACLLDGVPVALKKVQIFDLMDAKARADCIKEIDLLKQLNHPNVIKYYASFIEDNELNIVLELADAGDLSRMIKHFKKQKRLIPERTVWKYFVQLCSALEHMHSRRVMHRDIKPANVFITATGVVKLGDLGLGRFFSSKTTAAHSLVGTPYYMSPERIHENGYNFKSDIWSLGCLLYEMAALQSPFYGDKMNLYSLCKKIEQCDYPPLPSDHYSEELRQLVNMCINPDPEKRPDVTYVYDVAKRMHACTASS

[3] = target: off-target kinases (Homo sapiens, UniProt Q00526); settings: CDK3/cyclin E1, LanthaScreen Binding
Chain of off-target kinases (Homo sapiens, UniProt Q00526) (Q00526 whole entry): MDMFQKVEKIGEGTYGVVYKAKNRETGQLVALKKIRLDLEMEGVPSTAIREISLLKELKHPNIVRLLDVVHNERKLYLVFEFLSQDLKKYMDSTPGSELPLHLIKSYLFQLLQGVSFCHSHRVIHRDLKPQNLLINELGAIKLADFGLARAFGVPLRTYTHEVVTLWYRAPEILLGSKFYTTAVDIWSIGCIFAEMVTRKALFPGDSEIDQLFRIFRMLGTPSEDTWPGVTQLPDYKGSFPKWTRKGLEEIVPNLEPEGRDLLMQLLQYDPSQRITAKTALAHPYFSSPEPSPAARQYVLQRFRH

[4] = target: off-target kinases (Homo sapiens, UniProt Q9H2G2); settings: SLK, LanthaScreen Binding
[5] = target: off-target kinases (Homo sapiens, UniProt P48736); settings: PIK3CG (p110 gamma), Adapta, ATP Km app
[6] = target: off-target kinases (Homo sapiens, UniProt O60674, V617F); settings: JAK2 JH1 JH2 V617F, ATP Km app, ZLYTE
Chain of off-target kinases (Homo sapiens, UniProt O60674, V617F) (O60674 whole entry V617F): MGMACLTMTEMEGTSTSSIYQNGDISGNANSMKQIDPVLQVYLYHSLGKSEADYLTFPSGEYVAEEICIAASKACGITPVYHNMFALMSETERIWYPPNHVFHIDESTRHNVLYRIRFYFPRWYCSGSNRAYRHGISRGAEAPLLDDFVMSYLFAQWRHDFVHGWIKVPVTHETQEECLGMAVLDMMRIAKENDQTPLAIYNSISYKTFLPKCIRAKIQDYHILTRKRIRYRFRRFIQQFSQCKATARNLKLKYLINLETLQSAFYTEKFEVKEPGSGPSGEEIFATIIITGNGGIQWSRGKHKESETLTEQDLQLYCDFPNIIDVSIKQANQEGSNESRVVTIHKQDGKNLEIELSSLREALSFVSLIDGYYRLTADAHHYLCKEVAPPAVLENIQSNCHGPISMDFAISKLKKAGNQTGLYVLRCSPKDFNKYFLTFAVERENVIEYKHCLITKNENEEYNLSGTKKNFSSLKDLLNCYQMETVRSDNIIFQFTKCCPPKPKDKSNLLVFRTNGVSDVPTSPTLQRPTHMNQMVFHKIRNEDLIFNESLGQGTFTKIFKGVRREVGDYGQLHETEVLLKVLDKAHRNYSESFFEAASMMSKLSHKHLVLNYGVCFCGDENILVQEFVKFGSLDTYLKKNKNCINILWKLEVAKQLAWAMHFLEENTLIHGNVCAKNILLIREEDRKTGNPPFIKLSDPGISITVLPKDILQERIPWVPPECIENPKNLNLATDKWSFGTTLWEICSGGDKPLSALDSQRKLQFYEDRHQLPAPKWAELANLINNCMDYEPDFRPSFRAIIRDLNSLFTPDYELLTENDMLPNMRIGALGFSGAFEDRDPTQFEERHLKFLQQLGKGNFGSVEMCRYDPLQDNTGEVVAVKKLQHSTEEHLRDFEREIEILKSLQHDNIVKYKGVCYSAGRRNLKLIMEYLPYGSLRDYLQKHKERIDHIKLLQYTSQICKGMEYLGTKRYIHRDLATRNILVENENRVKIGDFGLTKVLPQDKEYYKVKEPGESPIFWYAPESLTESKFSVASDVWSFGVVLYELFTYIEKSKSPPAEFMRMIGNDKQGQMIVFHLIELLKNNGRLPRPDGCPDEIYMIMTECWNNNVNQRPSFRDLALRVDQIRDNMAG

[7] = target: off-target kinases (Homo sapiens, UniProt P07949, V804L); settings: RET V804L, ATP Km app, ZLYTE
Chain of off-target kinases (Homo sapiens, UniProt P07949, V804L) (P07949 29-1114 V804L): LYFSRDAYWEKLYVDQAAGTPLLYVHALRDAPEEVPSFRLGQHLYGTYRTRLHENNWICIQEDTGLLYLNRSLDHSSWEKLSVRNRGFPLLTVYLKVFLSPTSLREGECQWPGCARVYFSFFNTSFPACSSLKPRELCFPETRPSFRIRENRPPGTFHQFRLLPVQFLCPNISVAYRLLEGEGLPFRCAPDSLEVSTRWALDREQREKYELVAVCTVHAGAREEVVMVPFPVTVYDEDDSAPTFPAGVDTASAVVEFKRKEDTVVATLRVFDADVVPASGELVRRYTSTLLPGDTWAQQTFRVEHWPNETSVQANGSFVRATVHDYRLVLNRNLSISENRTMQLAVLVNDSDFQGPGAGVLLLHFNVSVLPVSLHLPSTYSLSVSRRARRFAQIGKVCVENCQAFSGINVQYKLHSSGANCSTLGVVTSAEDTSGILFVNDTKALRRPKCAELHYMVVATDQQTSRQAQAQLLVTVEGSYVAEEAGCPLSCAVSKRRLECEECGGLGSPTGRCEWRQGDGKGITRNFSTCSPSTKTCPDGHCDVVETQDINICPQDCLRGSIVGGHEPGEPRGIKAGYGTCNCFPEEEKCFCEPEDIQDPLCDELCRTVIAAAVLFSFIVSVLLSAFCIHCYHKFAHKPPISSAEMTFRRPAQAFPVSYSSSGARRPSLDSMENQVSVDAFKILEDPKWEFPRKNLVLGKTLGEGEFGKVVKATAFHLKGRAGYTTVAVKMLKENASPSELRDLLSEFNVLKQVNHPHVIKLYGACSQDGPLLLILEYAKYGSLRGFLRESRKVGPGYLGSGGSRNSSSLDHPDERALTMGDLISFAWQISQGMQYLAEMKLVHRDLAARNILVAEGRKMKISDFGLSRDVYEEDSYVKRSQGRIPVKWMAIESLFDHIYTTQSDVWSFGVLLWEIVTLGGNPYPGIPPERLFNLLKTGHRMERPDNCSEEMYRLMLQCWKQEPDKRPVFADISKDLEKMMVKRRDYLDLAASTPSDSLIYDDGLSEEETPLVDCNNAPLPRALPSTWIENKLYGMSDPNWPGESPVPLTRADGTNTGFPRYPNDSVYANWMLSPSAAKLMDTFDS

[8] = target: T1, off-target kinases (Homo sapiens, UniProt Q16832, N456S); settings: DDR2 N456S, mutant y, LanthaScreen Binding
T1 sequence (Q16832 22-855 N456S): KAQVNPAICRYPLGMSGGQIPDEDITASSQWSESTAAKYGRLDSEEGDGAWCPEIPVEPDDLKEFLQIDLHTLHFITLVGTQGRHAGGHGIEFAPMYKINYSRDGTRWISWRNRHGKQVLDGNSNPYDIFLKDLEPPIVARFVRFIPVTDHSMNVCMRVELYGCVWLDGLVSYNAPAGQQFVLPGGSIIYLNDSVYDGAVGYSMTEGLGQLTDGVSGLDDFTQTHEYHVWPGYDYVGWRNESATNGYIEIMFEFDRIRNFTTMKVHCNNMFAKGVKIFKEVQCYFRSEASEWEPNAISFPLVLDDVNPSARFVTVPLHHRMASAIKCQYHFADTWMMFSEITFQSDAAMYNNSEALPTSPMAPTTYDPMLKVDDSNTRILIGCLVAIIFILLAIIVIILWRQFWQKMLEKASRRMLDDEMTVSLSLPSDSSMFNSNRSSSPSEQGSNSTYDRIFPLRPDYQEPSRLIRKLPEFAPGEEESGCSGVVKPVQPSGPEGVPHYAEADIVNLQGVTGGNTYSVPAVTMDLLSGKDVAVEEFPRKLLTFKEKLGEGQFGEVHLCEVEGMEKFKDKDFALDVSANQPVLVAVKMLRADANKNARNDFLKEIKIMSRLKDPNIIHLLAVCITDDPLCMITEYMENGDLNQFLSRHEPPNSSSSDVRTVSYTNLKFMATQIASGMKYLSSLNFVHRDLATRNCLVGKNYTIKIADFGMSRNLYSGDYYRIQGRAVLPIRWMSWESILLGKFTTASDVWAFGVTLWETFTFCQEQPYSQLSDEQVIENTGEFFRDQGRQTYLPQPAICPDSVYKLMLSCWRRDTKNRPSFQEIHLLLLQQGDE

[9] = target: off-target kinases (Homo sapiens, UniProt P23458); settings: JAK1, ZLYTE, ATP Km app
Chain of off-target kinases (Homo sapiens, UniProt P23458) (P23458 whole entry): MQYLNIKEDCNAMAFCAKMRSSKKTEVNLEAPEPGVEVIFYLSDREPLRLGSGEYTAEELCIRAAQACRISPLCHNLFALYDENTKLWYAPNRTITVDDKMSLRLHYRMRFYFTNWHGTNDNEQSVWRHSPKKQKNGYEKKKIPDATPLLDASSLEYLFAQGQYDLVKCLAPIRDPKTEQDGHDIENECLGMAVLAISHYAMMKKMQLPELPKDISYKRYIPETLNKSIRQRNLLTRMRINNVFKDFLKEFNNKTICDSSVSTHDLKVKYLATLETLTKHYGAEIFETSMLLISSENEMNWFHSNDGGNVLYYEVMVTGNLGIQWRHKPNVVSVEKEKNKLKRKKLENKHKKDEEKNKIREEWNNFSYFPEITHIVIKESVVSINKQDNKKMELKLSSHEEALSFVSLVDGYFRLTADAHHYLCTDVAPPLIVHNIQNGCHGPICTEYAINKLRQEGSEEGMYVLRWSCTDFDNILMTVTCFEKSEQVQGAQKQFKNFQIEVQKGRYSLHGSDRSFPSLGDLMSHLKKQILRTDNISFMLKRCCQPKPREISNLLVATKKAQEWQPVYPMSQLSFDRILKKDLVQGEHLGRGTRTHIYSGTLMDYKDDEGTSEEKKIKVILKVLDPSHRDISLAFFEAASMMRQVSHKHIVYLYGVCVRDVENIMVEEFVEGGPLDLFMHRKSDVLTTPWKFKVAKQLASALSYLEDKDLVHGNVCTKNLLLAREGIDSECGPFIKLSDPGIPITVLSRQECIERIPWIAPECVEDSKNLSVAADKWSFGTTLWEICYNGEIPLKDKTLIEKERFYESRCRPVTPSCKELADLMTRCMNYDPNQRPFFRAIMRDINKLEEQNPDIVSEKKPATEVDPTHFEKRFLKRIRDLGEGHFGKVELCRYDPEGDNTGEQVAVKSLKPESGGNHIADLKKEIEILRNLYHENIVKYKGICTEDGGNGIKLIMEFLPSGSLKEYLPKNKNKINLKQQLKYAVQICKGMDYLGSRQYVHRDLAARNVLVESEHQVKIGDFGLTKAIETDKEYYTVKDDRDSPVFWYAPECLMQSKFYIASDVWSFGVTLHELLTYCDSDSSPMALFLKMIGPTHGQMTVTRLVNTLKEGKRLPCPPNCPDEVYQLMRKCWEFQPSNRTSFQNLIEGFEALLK

## N#Cc1cc(-c2ncnc(Nc3ccc(N4CCN(C5COC5)CC4)cc3)n2)ccc1OC1CCOCC1 [Compound 1, 5-(4-((4-(4-(oxetan-3-yl)piperazin-1-yl)phenyl)amino)-1,3,5-triazin-2-yl)-2-((tetrahydro-2H-pyran-4-yl)oxy)benzonitrile]
[1]; read-out: % Inhibition 1
  inhibition: 99%
[1]; read-out: % Inhibition 2
  inhibition: 100%
[1]; read-out: % Inhibition Avg
  inhibition: 100%
[2]; read-out: % Inhibition 1
  inhibition: 5%
[2]; read-out: % Inhibition 2
  inhibition: 2%
[2]; read-out: % Inhibition Avg
  inhibition: 3%
[3]; read-out: % Inhibition 1
  inhibition: 2%
[3]; read-out: % Inhibition 2
  inhibition: 9%
[3]; read-out: % Inhibition Avg
  inhibition: 6%
[4]; read-out: % Inhibition 1
  inhibition: 29%
[4]; read-out: % Inhibition 2
  inhibition: 32%
[4]; read-out: % Inhibition Avg
  inhibition: 30%
[5]; read-out: % Inhibition 1
  inhibition: 11%
[5]; read-out: % Inhibition 2
  inhibition: 8%
[5]; read-out: % Inhibition Avg
  inhibition: 9%
[6]; read-out: % Inhibition 1
  inhibition: 54%
[6]; read-out: % Inhibition 2
  inhibition: 50%
[6]; read-out: % Inhibition Avg
  inhibition: 52%
[7]; read-out: % Inhibition 1
  inhibition: 71%
[7]; read-out: % Inhibition 2
  inhibition: 66%
[7]; read-out: % Inhibition Avg
  inhibition: 69%
[8]; read-out: % Inhibition 1
  inhibition: 33%
[8]; read-out: % Inhibition 2
  inhibition: 42%
[8]; read-out: % Inhibition Avg
  inhibition: 37%
[9]; read-out: % Inhibition 1
  inhibition: 11%
[9]; read-out: % Inhibition 2
  inhibition: 10%
[9]; read-out: % Inhibition Avg
  inhibition: 10%
